Target: T1, Bcl-2 protein (Recombinant Human Bcl-2 Protein) (Homo sapiens, UniProt P10415)
T1 construct: purchased Novus NBP2-34889
Test: Binding evaluation of mixture library compounds to Bcl-2 using AS-MS (affinity selection mass spectrometry)
Conditions: AS-MS on the mixture of 1200 library compounds, ASMS Ratio(%)=(A−C)/B×100; for ASMS ratio (%) n = 1: replicate n = 1; for ASMS ratio (%) n = 2: replicate n = 2
Method in brief: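 Pooled library of ~1200 compounds ([…] each, final) incubated with recombinant human Bcl-2 (20 μM final) in Tris-HCl pH 7.4, NaCl, Tween-20, DTT buffer, dark, 23° C., 1 h. Bound fraction recovered by SEC spin column, organic extraction, reversed-phase LC/MS. ASMS Ratio (%) = (A−C)/B×100 versus protein-free standard and SEC blank.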

T1 sequence (P10415 whole entry): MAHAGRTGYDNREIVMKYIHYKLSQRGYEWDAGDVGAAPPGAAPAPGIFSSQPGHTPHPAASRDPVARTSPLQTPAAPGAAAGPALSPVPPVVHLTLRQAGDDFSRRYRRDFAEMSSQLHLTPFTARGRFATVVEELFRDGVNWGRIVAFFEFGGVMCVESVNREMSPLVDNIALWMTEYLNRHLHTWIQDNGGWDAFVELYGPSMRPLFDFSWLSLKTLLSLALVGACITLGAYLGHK

| ASMS ratio (%) n = 1 | ASMS ratio (%) n = 2 | Compound |
| --- | --- | --- |
| 1.9% | −1.1% | CCOc1cncc(-c2csc(CN3CCN(c4ccc(C(=O)Nc5ccc(OC)cc5)cc4)CC3)c2)c1 [B1O068-01, 4-[4-[[4-(5-Ethoxypyridin-3-yl)thiophen-2-yl]methyl]piperazin-1-yl]-N-(4-methoxyphenyl)benzamide] |
| 6.2% | −2.4% | CCOc1cccc(C#Cc2ccccc2CN2CCN(c3ccc(C(=O)Nc4ccc(OC)cc4)cc3)CC2)c1 [B1O069-01, 4-[4-[[2-[2-(3-Ethoxyphenyl)ethynyl]phenyl]methyl]piperazin-1-yl]-N-(4-methoxyphenyl)benzamide] |
| 2.9% | −1.1% | CCOc1cccc(-c2ccccc2CN2CCN(c3ccc(C(=O)Nc4ccc(OC)cc4)nn3)CC2)c1 [B1O071-01, 6-[4-[[2-(3-Ethoxyphenyl)phenyl]methyl]piperazin-1-yl]-N-(4-methoxyphenyl)pyridazine-3-carboxamide] |
| 4.1% | 0.4% | CCOc1cncc(-c2ccccc2CN2CCN(c3ccc(C(=O)Nc4ccc(OC)cc4)nn3)CC2)c1 [B1O072-01, 6-[4-[[2-(5-Ethoxypyridin-3-yl)phenyl]methyl]piperazin-1-yl]-N-(4-methoxyphenyl)pyridazine-3-carboxamide] |
| 2.0% | 3.7% | CCOc1cccc(-c2ccc(CN3CCN(c4ccc(C(=O)Nc5ccc(OC)cc5)nn4)CC3)cc2C)c1 [B1O073-01, 6-[4-[[4-(3-Ethoxyphenyl)-3-methylphenyl]methyl]piperazin-1-yl]-N-(4-methoxyphenyl)pyridazine-3-carboxamide] |
| 3.9% | −0.9% | CCOc1cncc(-c2ccc(CN3CCN(c4ccc(C(=O)Nc5ccc(OC)cc5)nn4)CC3)cc2C)c1 [B1O074-01, 6-[4-[[4-(5-Ethoxypyridin-3-yl)-3-methylphenyl]methyl]piperazin-1-yl]-N-(4-methoxyphenyl)pyridazine-3-carboxamide] |
| 9.3% | 0.8% | CCOc1cccc(-c2ccc(CN3CCN(c4ccc(C(=O)Nc5ccc(OC)cc5)nn4)CC3)c(CC)c2)c1 [B1O075-01, 6-[4-[[4-(3-Ethoxyphenyl)-2-ethylphenyl]methyl]piperazin-1-yl]-N-(4-methoxyphenyl)pyridazine-3-carboxamide] |
| 4.4% | 1.1% | CCOc1cncc(-c2ccc(CN3CCN(c4ccc(C(=O)Nc5ccc(OC)cc5)nn4)CC3)c(CC)c2)c1 [B1O076-01, 6-[4-[[4-(5-Ethoxypyridin-3-yl)-2-ethylphenyl]methyl]piperazin-1-yl]-N-(4-methoxyphenyl)pyridazine-3-carboxamide] |
| 4.1% | 0.4% | CCOc1cccc(-c2ccc(CN3CCN(c4ccc(C(=O)Nc5ccc(OC)cc5)nn4)CC3)cc2F)c1 [B1O077-01, 6-[4-[[4-(3-Ethoxyphenyl)-3-fluorophenyl]methyl]piperazin-1-yl]-N-(4-methoxyphenyl)pyridazine-3-carboxamide] |
| 4.8% | 1.8% | CCOc1cncc(-c2ccc(CN3CCN(c4ccc(C(=O)Nc5ccc(OC)cc5)nn4)CC3)cc2F)c1 [B1O078-01] |
| 4.5% | 1.3% | CCOc1cccc(-c2ccc(CN3CCN(c4ccc(C(=O)Nc5ccc(OC)cc5)nn4)CC3)c(OC)c2)c1 [B1O079-01, 6-[4-[[4-(3-Ethoxyphenyl)-2-methoxyphenyl]methyl]piperazin-1-yl]-N-(4-methoxyphenyl)pyridazine-3-carboxamide] |
| 1.4% | 3.4% | CCOc1cncc(-c2ccc(CN3CCN(c4ccc(C(=O)Nc5ccc(OC)cc5)nn4)CC3)c(OC)c2)c1 [B1O080-01, 6-[4-[[4-(5-Ethoxypyridin-3-yl)-2-methoxyphenyl]methyl]piperazin-1-yl]-N-(4-methoxyphenyl)pyridazine-3-carboxamide] |
| 3.2% | −2.2% | CCOc1cccc(-c2cc(CN3CCN(c4ccc(C(=O)Nc5ccc(OC)cc5)nn4)CC3)cc(OCC)c2)c1 [B1O081-01, 6-[4-[[3-Ethoxy-5-(3-ethoxyphenyl)phenyl]methyl]piperazin-1-yl]-N-(4-methoxyphenyl)pyridazine-3-carboxamide] |
| 1.5% | 2.6% | CCOc1cncc(-c2cc(CN3CCN(c4ccc(C(=O)Nc5ccc(OC)cc5)nn4)CC3)cc(OCC)c2)c1 [B1O082-01, 6-[4-[[3-Ethoxy-5-(5-ethoxypyridin-3-yl)phenyl]methyl]piperazin-1-yl]-N-(4-methoxyphenyl)pyridazine-3-carboxamide] |
| 7.2% | 1.0% | CCOc1cccc(-c2cc(CN3CCN(c4ccc(C(=O)Nc5ccc(OC)cc5)nn4)CC3)cc(OC(C)C)c2)c1 [B1O083-01, 6-[4-[[3-(3-Ethoxyphenyl)-5-propan-2-yloxyphenyl]methyl]piperazin-1-yl]-N-(4-methoxyphenyl)pyridazine-3-carboxamide] |
| 6.8% | 2.0% | CCOc1cncc(-c2cc(CN3CCN(c4ccc(C(=O)Nc5ccc(OC)cc5)nn4)CC3)cc(OC(C)C)c2)c1 [B1O084-01] |
| −1.1% | −3.1% | CCOc1cccc(-c2cc(OC)c(CN3CCN(c4ccc(C(=O)Nc5ccc(OC)cc5)nn4)CC3)c(OC)c2)c1 [B1O085-01, 6-[4-[[4-(3-Ethoxyphenyl)-2,6-dimethoxyphenyl]methyl]piperazin-1-yl]-N-(4-methoxyphenyl)pyridazine-3-carboxamide] |
| – | −0.4% | CCOc1cncc(-c2cc(OC)c(CN3CCN(c4ccc(C(=O)Nc5ccc(OC)cc5)nn4)CC3)c(OC)c2)c1 [B1O086-01, 6-[4-[[4-(5-Ethoxypyridin-3-yl)-2,6-dimethoxyphenyl]methyl]piperazin-1-yl]-N-(4-methoxyphenyl)pyridazine-3-carboxamide] |
| 2.2% | −0.5% | CCOc1cccc(-c2cc(CN3CCN(c4ccc(C(=O)Nc5ccc(OC)cc5)nn4)CC3)cc(C(F)(F)F)c2)c1 [B1O087-01] |
| 3.1% | 1.4% | CCOc1cncc(-c2cc(CN3CCN(c4ccc(C(=O)Nc5ccc(OC)cc5)nn4)CC3)cc(C(F)(F)F)c2)c1 [B1O088-01] |
| 3.8% | −5.3% | CCOc1cccc(-c2cc(CN3CCN(c4ccc(C(=O)Nc5ccc(OC)cc5)nn4)CC3)cc(OC(F)(F)F)c2)c1 [B1O089-01, 6-[4-[[3-(3-Ethoxyphenyl)-5-(trifluoromethoxy)phenyl]methyl]piperazin-1-yl]-N-(4-methoxyphenyl)pyridazine-3-carboxamide] |
| 3.3% | −2.0% | CCOc1cncc(-c2cc(CN3CCN(c4ccc(C(=O)Nc5ccc(OC)cc5)nn4)CC3)cc(OC(F)(F)F)c2)c1 [B1O090-01, 6-[4-[[3-(5-Ethoxypyridin-3-yl)-5-(trifluoromethoxy)phenyl]methyl]piperazin-1-yl]-N-(4-methoxyphenyl)pyridazine-3-carboxamide] |
| 4.5% | 2.2% | CCOc1cccc(-c2ccc(CN3CCN(c4ccc(C(=O)Nc5ccc(OC)cc5)nn4)CC3)c3ccccc23)c1 [B1O091-01] |
| 6.3% | −1.4% | CCOc1cncc(-c2ccc(CN3CCN(c4ccc(C(=O)Nc5ccc(OC)cc5)nn4)CC3)c3ccccc23)c1 [B1O092-01, 6-[4-[[4-(5-Ethoxypyridin-3-yl)naphthalen-1-yl]methyl]piperazin-1-yl]-N-(4-methoxyphenyl)pyridazine-3-carboxamide] |
| 0.0% | 0.6% | CCOc1cccc(-c2csc(CN3CCN(c4ccc(C(=O)Nc5ccc(OC)cc5)nn4)CC3)c2)c1 [B1O093-01, 6-[4-[[4-(3-Ethoxyphenyl)thiophen-2-yl]methyl]piperazin-1-yl]-N-(4-methoxyphenyl)pyridazine-3-carboxamide] |
| 2.2% | −0.7% | CCOc1cncc(-c2csc(CN3CCN(c4ccc(C(=O)Nc5ccc(OC)cc5)nn4)CC3)c2)c1 [B1O094-01, 6-[4-[[4-(5-Ethoxypyridin-3-yl)thiophen-2-yl]methyl]piperazin-1-yl]-N-(4-methoxyphenyl)pyridazine-3-carboxamide] |
| 2.7% | 0.0% | CCOc1cccc(C#Cc2ccccc2CN2CCN(c3ccc(C(=O)Nc4ccc(OC)cc4)nn3)CC2)c1 [B1O095-01, 6-[4-[[2-[2-(3-Ethoxyphenyl)ethynyl]phenyl]methyl]piperazin-1-yl]-N-(4-methoxyphenyl)pyridazine-3-carboxamide] |
| 0.0% | 3.5% | CCOc1cncc(C#Cc2ccccc2CN2CCN(c3ccc(C(=O)Nc4ccc(OC)cc4)nn3)CC2)c1 [B1O096-01, 6-[4-[[2-[2-(5-Ethoxypyridin-3-yl)ethynyl]phenyl]methyl]piperazin-1-yl]-N-(4-methoxyphenyl)pyridazine-3-carboxamide] |
| 4.2% | 2.2% | CCOc1cccc(-c2ccc(C(C)N3CCN(c4ccc(C(=O)Nc5ccc(OC)cc5)cc4)CC3)cc2)c1 (centres unmarked) [B1O097-01, 4-[4-[1-[4-(3-Ethoxyphenyl)phenyl]ethyl]piperazin-1-yl]-N-(4-methoxyphenyl)benzamide] |

| Compound | ASMS ratio (%) n = 1 | ASMS ratio (%) n = 2 |
| --- | --- | --- |
| CCOc1cncc(C#Cc2ccccc2CN2CCN(c3ccc(C(=O)Nc4ccc(OC)cc4)cc3)CC2)c1 [B1O070-01] | 8.8% | 2.3% |

Reference: US20240132431A1, “METHOD FOR ALKYLATING ACIDIC FUNCTIONAL GROUP” (Chugai Seiyaku Kabushiki Kaisha, priority 2021, published 2024)
